Test results from patent publication US20200171026A1, “PROSTACYCLIN RECEPTOR AGONISTS FOR REDUCTION OF BODY FAT” (Allergan, Inc., priority 2017, published 2020).

What was measured:
[1] = tested on: fat in the triceps region; experiment: In vivo human study, topical ointment, body fat calipers in triceps region; settings: human subjects; topical ointment 0.003%, 0.03% or 0.3% daily; 6 months
Description: The following experiment describes a randomized, double-blind study in human subjects to test whether compounds according to the present disclosure, including topical FK-788, reduces fat in the body of individuals.
Multiple human subjects (both male and female), for example, with body mass indices of 30 or more but otherwise healthy, are entered into a randomized double-blind study. Either the left or the right arm is randomized to receive topical FK-788; the other arm receives vehicle only. FK-788 is supplied in a petrolatum-based ointment (the vehicle) at a final concentration of 0%, 0.003%, 0.03% or 0.3%. Ointment containers are unlabeled as to the presence or concentration of FK-788.
Each day, subjects apply a thin film of ointment to the skin over the respective triceps while wearing new, clean surgical gloves. Subjects are instructed to refrain from washing the treated area for at least 8 hours and are instructed to refrain from wearing tight clothing or occlusive dressings that will come into contact with the treated area.
Body fat calipers are used to measure fat in the triceps region bilaterally on a weekly basis. The study continues for 6 months. […] As a result, this contemplated outcome will show, in vivo, that compounds according to the present invention, including FK-788, can reduce fat.

[2] = tested on: human adipocytes; experiment: human adipocyte lipolysis assay (glycerol released into the medium); format: cell-based; settings: for glycerol release / lipolytic activity in human adipocytes (FIG. 2): fully differentiated human adipocytes, 1 μM
Protocol: Two weeks after the initiation of differentiation, differentiated cells appeared rounded with large lipid droplets apparent in the cytoplasm, and were thereby considered mature adipocytes. At this time, the differentiation medium was washed out. Two days after washing out the differentiation agents, the mature adipocytes were treated with different concentrations of PGI2 receptor agonist compounds cicaprost, beraprost, FK-788 and selexipag. Lipolytic activity was assessed by the measurement of glycerol released into the medium from triglyceride breakdown. In this experiment, lipolysis was measured using a human adipocyte lipolysis assay kit (ZenBio, Inc., Research Triangle Park, N.C., Cat #LIP-1-SPF).
The data are provided in FIG. 1 and are expressed as fold induction over a buffer control (mature adipocytes treated with vehicle buffer in the absence of any agonist). Each data point on the graph in FIG. 1 represents the mean±SEM of 2 to 8 experiments.
The in vitro human adipocytes lipolysis results for cicaprost and FK-788 from Example 1 at the 1 μM concentration were compared to lipolysis induced by those compounds in ex vivo mouse adipocytes, which are commonly used to detect lipolytic activity.

[3] = fold induction over buffer control

| Compound | fat in treated arm compared to vehicle-treated arm [1] | glycerol release / lipolytic activity in human adipocytes (FIG. 2) [2, 3] | relative potency among the PGI2 receptor agonists tested ([2]; human mature adipocytes, cicaprost, beraprost, FK-788 and selexipag compared) | increase in glycerol production ([2]; human mature adipocytes, concentration of about 0.1 μM, fold induction over buffer control) |
| --- | --- | --- | --- | --- |
| O=C(O)COc1cccc2c1CC[C@](O)(COC(=O)N(c1ccccc1)c1ccccc1)C2 [FK-788, 2-[[(6R)-6-[di(phenyl)carbamoyloxymethyl]-6-hydroxy-7,8-dihydro-5H-naphthalen-1-yl]oxy]acetic acid] | lower fat | increased glycerol release |  |  |
| CCC#CC[C@H](C)[C@H](O)C#C[C@@H]1[C@H]2C/C(=C/COCC(=O)O)C[C@H]2C[C@H]1O [cicaprost, 2-[(2E)-2-[(3aS,4S,5R,6aS)-5-hydroxy-4-[(3S,4S)-3-hydroxy-4-methylnona-1,-6-diynyl]-3,3a,4,5,6,6a-hexahydro-1H-pentalen-2-ylidene]ethoxy]acetic acid] |  | increased glycerol release | most potent agonist | approximately 3 fold |
